Bounds are passed on as bounds.

This test deals with M. tuberculosis H37Rv growth inhibition. Kind of test: M. tuberculosis H37Rv growth inhibitors, H37Rv strain (AID 1626). The settings on record: for IC90: measured here: IC90 against H37Rv; for CC50: measured here: Vero cell cytotoxicity.

For `CCCOC(=O)c1ccc(NC(=O)CCC(=O)OCC)cc1`, the IC50 was less than 0.195 µM and the IC90 was more than 100 µM.
As to `O=C(COC(=O)/C=C/c1nc2ccccc2s1)Nc1cccc(Cl)c1Cl`, the IC90 is more than 100 µM.
For `O=C(Nc1nc(-c2ccc(F)cc2)cs1)c1cnccn1`, the IC90 was more than 100 µM and the half-maximal cytotoxic concentration (CC50) is more than 40 µM.
On to `COc1ccc(C2CC(=O)C3=C(C2)NC(C)=C(C#N)C3c2ccc(N(C)C)cc2)cc1` (stereo not drawn), for which the IC50 is 12.5 µM and the IC90 was determined as 21.9 µM.
On to `C/C=C/C(=O)OCC(=O)Nc1ccc(OC)c(Cl)c1`, for which the IC50 was 20 µM and the IC90 was more than 100 µM.
Take `CCN(CC)Cc1nc2c(c(=O)[nH]1)C1(CCCCC1)Cc1ccccc1-2`: the IC50 was 6.77 µM and the IC90 is more than 100 µM.
As for `Cc1ccc(C2CC(C(F)(F)F)n3nc(C(=O)NCc4ccco4)cc3N2)cc1` (stereo not drawn), the IC50 was 0.92 µM and the IC90 amounted to 1.79 µM.
As for `O=C1C=C(c2cccs2)C[C@H](c2ccccc2)[C@H]1n1nnc([N+](=O)[O-])n1`, the IC50 was 3.8 µM, the IC90 worked out at 7.5 µM and the CC50 was less than 0.078 µM.
With `CC(C)c1ccc(NC(=O)c2snc3ccc(Cl)cc23)cc1`, the IC50 is 3.89 µM, the IC90 is more than 100 µM and the CC50 is more than 40 µM.
`Cc1cc(-c2ccc(/C=N/n3cnnc3)o2)ccc1Cl` came in with an IC90 of more than 100 µM.
`Cc1ccc(C)c(-c2cc(C(=O)Nc3nccs3)c3ccccc3n2)c1`: the IC50 was 8.18 µM and the IC90 worked out at 11.3 µM.
On to `Cc1ccc(Nc2nnc(SCC(=O)Nc3cccnc3Cl)s2)cc1C`, for which the IC50 is 1.63 µM and the IC90 was found to be 3.5 µM.
Turning to `Fc1ccc(Oc2nc(-c3ccccn3)nc3ccccc23)cc1`, the IC50 was 1.96 µM, the IC90 came out at 11.2 µM and the CC50 was more than 40 µM.
As for `Cc1ccc(N/C(N)=N/c2nc(C)cc(N3CCCCC3)n2)c(C)c1`, the IC50 is 2.17 µM, the IC90 was 3.68 µM and the CC50 amounted to 9.19 µM.
On to `COc1ccc(NC(=O)CN(C)CC(=O)Nc2cccc(F)c2)cc1Cl`, for which the IC50 is 32 µM and the IC90 was more than 100 µM.
Regarding `CCCn1c(NC(=O)C23CC4CC(CC(O)(C4)C2)C3)nc2ccccc21`, the IC50 was 11.1 µM, the IC90 was more than 100 µM and the CC50 was more than 40 µM.
Take `O=Cc1ccc(O)c2ncccc12`: the IC50 is 0.378 µM, the IC90 amounted to 0.549 µM and the CC50 turned out to be 7.88 µM.
In the case of `Cc1ccccc1-n1nnc2c(=O)oc3ccccc3c21`, the IC50 was 4.48 µM and the concentration for an effect of 90% (IC90) was more than 100 µM.
On to `CCOC(=O)C(/C=C(\C#N)C(=O)OCC)=C(/N)N1CCN(c2ccc(Cl)cc2)CC1`, for which the IC50 was 11.7 µM and the IC90 was determined as 13 µM.
Taken in the same sequence, the figures for `O=C(Oc1ccc(-c2cnc3ccccc3n2)cc1)c1ccc(Cl)c([N+](=O)[O-])c1` were 5.25 µM and 23.4 µM.
For the molecule `CCOc1ccc(-c2nnc(SCC(=O)Nc3cc(C)on3)o2)cc1`, the half-inhibitory concentration (IC50) was 1.63 µM, the IC90 was 1.95 µM and the CC50 is more than 40 µM.
Consider `Cn1c(-c2ccc3c(c2)OCO3)cnc1NCc1cccc(Cl)c1`, for which the half-maximal inhibitory concentration (IC50) was 11.4 µM, the concentration for an effect of 90% (IC90) stood at 13.1 µM and the cytotoxic concentration (CC50) is more than 40 µM.
Taken in the same sequence, the figures for `CCOc1ccc2nc(/N=C/c3c(C)[nH]n(-c4ccc(C)cc4)c3=O)sc2c1` were 9.04 µM, more than 100 µM and more than 40 µM.
`C=C1C(=O)O[C@@H]2C[C@@H](C)[C@@H]3C=CC(=O)[C@@]3(C)[C@@H](O)[C@H]12`: the IC50 is 3.84 µM, the IC90 came to 6.64 µM and the CC50 stood at 1.84 µM.
As for `O=C(Nc1ccccc1F)C(=Cc1sc(N2CCOCC2)nc1-c1ccccc1)C(=O)Nc1ccccc1F`, the IC50 was 51 µM, the 90% effect concentration (IC90) was more than 100 µM and the CC50 is more than 40 µM.
Regarding `Cc1ccc(C)c(SCC(=O)OC/C(O)=C(\C#N)c2nc3ccccc3[nH]2)c1`, the IC50 is 3.09 µM, the IC90 is 4.9 µM and the CC50 is more than 40 µM.
With `c1cnc2c(c1)ccc1cccnc12`, the IC50 was 4.46 µM, the IC90 amounted to 8.17 µM and the CC50 stood at 3.98 µM.
For the molecule `CC(C)=CCN1CCN(CCC2=C(C)CCCC2(C)C)CC1CCO` (stereo not drawn), the IC50 is 5.88 µM and the IC90 amounted to 6.66 µM.
As to `O=C(NCc1cn(-c2ccccc2)nc1-c1ccccc1)c1cc([N+](=O)[O-])cc([N+](=O)[O-])c1`, the IC50 was 0.591 µM, the IC90 was 0.847 µM and the CC50 was more than 40 µM.
For the molecule `CCC(C)c1ccccc1NC(=O)CN1CCN(C/C=C/c2ccccc2)CC1` (stereo not drawn), the IC50 is 21.9 µM and the IC90 was determined as 35.1 µM.
With `COc1cc(/C=C/C(=O)c2cccc([N+](=O)[O-])c2)cc(OC)c1OC`, the half-inhibitory concentration (IC50) was 3.77 µM, the IC90 is 11.2 µM and the CC50 was 18.5 µM.
As to `Cc1[nH]n(-c2ccccc2)c(=S)c1C=NCCCN=Cc1c(C)[nH]n(-c2ccccc2)c1=S`, the IC50 was less than 0.391 µM and the IC90 is more than 100 µM.
Turning to `O=C(/C=C/c1ccccc1F)c1cccc([N+](=O)[O-])c1`, the IC50 was 6.24 µM, the IC90 is 6.73 µM and the CC50 is more than 40 µM.
Turning to `Cc1ccccc1N=Nc1ccc(O)c2ncccc12`, the IC50 is 21.1 µM, the IC90 was more than 100 µM and the CC50 was 0.933 µM.
As to `O=C(CSCC(=O)NC1CC1)Nc1ccc2ccccc2c1`, the IC50 was 5.37 µM and the IC90 is more than 100 µM.
On the same counts, the results for `CC1Cc2ccccc2N1C(=O)COC(=O)c1ccc(Br)o1` (stereo not drawn) are 16 µM and more than 100 µM.
Regarding `CC(=O)Nc1nnc(-c2ccc3c(c2)CCCC3)o1`, the IC50 is 11.9 µM, the IC90 was found to be 23 µM and the cytotoxic concentration (CC50) is more than 40 µM.
As for `CCOc1ccc(N2CC(=O)Nc3ccccc3NCC2=O)cc1`, the IC50 was 12.5 µM and the IC90 was more than 100 µM.
With `O=C(Nc1nnc(-c2ccc3c(c2)CCCC3)o1)c1ccc(Cl)cc1Cl`, the IC50 was 0.625 µM, the concentration for an effect of 90% (IC90) was found to be 0.962 µM and the CC50 was more than 40 µM.
In turn, `Nc1ccccc1Nc1cc(-c2ccccc2)[nH]n1` returned an IC90 of more than 100 µM.
On to `c1ccc(N2CCN(c3nc(NCc4ccco4)c4ccccc4n3)CC2)cc1`, for which the IC50 was 9.66 µM, the IC90 is 14.4 µM and the CC50 was more than 40 µM.
Consider `O=C(CSc1nc2ccccc2o1)NCC(=O)c1ccccc1`, for which the IC50 was 8.36 µM and the IC90 came to 25.9 µM.
Take `CCOc1ccc(OCC)c(NC(=O)CN2CCN(c3cc(C)ccc3C)CC2)c1`: the IC90 is more than 100 µM and the CC50 is more than 40 µM.
For the molecule `CCOC(=O)c1cc(-c2csc(-c3ccc(C(F)(F)F)cc3)n2)on1`, the IC50 is less than 0.195 µM and the IC90 came out at 3.33 µM.
Turning to `O=C(Nc1nc(-c2ccccn2)cs1)c1ncc(Cl)c(Cl)c1Cl`, the IC50 was 1.45 µM, the IC90 turned out to be 5.3 µM and the CC50 came to 31.7 µM.
On to `N=C1SC(c2ccccc2)C(=O)N1c1ncc(Cc2ccccc2Cl)s1` (stereo not drawn), for which the IC50 was 71 µM, the IC90 was more than 100 µM and the CC50 is 29.5 µM.
Turning to `COc1ccc(N=C2C(=O)Nc3c(C)cccc32)cc1`, the IC90 was more than 100 µM.
`CCOc1ccc(N=C/C=C/c2ccccc2)c(O)c1`: the IC50 is 0.939 µM, the concentration for an effect of 90% (IC90) stood at 5.41 µM and the CC50 turned out to be 38 µM.
Consider `CCc1ccc(Nc2nnc(SCC(=O)Nc3cccnc3Cl)s2)cc1`, for which the IC50 was 5.02 µM and the IC90 came out at 13.6 µM.
Regarding `COc1cccc2sc(Nc3nc(-c4ccccn4)cs3)nc12`, the IC50 is less than 0.195 µM, the IC90 is less than 0.195 µM and the CC50 turned out to be 1.92 µM.
As for `Cc1nc(N2CCN(Cc3ccc4c(c3)OCO4)CC2)c2cc(-c3ccccc3)sc2n1`, the IC50 was 5.39 µM, the IC90 turned out to be 6.08 µM and the CC50 is more than 40 µM.
On to `CCCC(=O)N1CCN(c2ccc(NC(=O)c3ccc([N+](=O)[O-])o3)cc2Cl)CC1`, for which the IC50 was less than 0.195 µM, the IC90 was less than 0.195 µM and the CC50 was 1.8 µM.
As for `Cc1cccn2c(=O)c3cc(C(=O)NCc4ccco4)c(=N)n(CCc4ccccc4)c3nc12`, the IC50 was 9.99 µM, the IC90 came to 21.2 µM and the CC50 is 18.8 µM.
On to `Cc1cc(OCc2nnc(SCC(=O)OC3CCCCC3)o2)ccc1Cl`, for which the IC50 was 0.372 µM and the 90% effect concentration (IC90) was found to be 2.57 µM.
In the case of `CCOc1ccc(NC(=O)NC23CC4CC(CC(C4)C2)C3)cc1`, the half-inhibitory concentration (IC50) is 2.58 µM and the concentration for an effect of 90% (IC90) is more than 100 µM.
For the molecule `CS(=O)(=O)Cc1nc2ccccc2oc1=O`, the IC50 is 1.45 µM, the IC90 was 2.01 µM and the CC50 is more than 40 µM.
The molecule `CCc1c(C#N)c(N)nc(SCC(=O)OCc2ccccc2)c1C#N` registered an IC90 of more than 100 µM.
On to `CCCCCn1c(N2CCC(Cc3ccccc3)CC2)nc2c1c(=O)[nH]c(=O)n2C`, for which the half-maximal inhibitory concentration (IC50) is 11.8 µM, the IC90 came out at 13.4 µM and the CC50 was found to be 24.1 µM.
On the same counts, the results for `CN1CCN(c2nc(-c3ccccc3)nc3c2oc2ccccc23)CC1` are 5.55 µM, 10.5 µM and 30 µM.
Take `COc1ccc2cc(C(c3nnnn3C3CCCC3)N3CCCCCC3)c3nnnn3c2c1` (stereo not drawn): the CC50 is 15.1 µM.
As for `CCOC(=O)c1ccc(NC(=O)CCNC(=O)c2ccc([N+](=O)[O-])cc2)cc1`, the IC90 is more than 100 µM.
Turning to `Cc1nn2c(NCCCN(C)C)c3c(nc2c1-c1ccccc1)CCC3`, the IC50 was 45.7 µM, the IC90 is 50.1 µM and the half-maximal cytotoxic concentration (CC50) is 23.2 µM.
Take `CCOC(=O)CSCC(=O)Nc1c(C(=O)C2CC2)oc2ccccc12`: the IC50 is 5.86 µM and the IC90 is 9.32 µM.
As for `Cc1cccc(OCCCCc2c(C)n[nH]c2C)c1C`, the IC50 was 2.75 µM, the 90% effect concentration (IC90) amounted to 3.87 µM and the CC50 was determined as 30.2 µM.
As to `Nc1ccc(Oc2ccc(Br)cc2)cc1`, the IC50 is 30.8 µM and the IC90 is more than 100 µM.
On to `CCC(=Nc1ccccc1O)C1=C(O)CC(c2ccccc2)CC1=O` (stereo not drawn), for which the half-maximal inhibitory concentration (IC50) is 1.51 µM, the IC90 is 1.72 µM and the CC50 is more than 40 µM.

The values are drawn from PubChem BioAssay AID1626 (SRMLSC, 2009).
